Values quoted from earlier work as cited in patent US20050143441A1, “Novel medical combination treatment of obesity involving 4,5-dihydro-1H-pyrazole derivatives having CB1-antagonistic activity” (priority 2003, published 2005).
One block for each compound: values may come before it.

Tests used:
[1] = in vivo
[2] = system: excretion of fat from the diet; settings: healthy male volunteers, 5 days
[3] = clinically obese patients
[4] = system: carragheenin induced swelling; settings: mice
[5] = molecular target: T1, porcine pancreatic lipase (Sus scrofa, UniProt P00591)
T1 sequence (P00591 1-450): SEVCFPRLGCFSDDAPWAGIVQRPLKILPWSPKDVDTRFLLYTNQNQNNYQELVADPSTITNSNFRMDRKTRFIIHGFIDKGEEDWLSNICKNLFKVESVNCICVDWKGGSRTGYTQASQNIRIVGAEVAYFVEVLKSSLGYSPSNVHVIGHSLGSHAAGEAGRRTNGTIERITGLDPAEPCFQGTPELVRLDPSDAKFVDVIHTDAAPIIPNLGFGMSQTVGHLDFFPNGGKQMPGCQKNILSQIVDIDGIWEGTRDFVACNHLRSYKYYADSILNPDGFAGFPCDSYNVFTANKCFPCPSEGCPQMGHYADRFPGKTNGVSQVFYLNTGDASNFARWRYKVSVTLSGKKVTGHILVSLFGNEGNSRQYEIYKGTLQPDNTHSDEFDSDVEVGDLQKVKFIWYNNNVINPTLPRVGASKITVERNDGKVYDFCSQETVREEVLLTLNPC

[6] = system: plasma lipases; settings: relative to THL

SMILES: CCCCCCCCCCCCCCCCOc1nc2ccc(C)cc2c(=O)o1 [ATL-962, 2-hexadecyloxy-6-methyl-4H-3,1-benzoxazin-4-one]
toxicity in preclinical studies [1]: no toxicity was observed
safety and tolerability, phase Ib [2]: safe and well tolerated
safety and tolerability, phase IIb [3]: safe and generally well tolerated

SMILES: CC[C@@H](C)[C@@H](O)[C@H](C)C(=O)[C@H](C)/C=C(\C)C[C@H](C)[C@@H]1OC(=O)[C@H]1CC [Ebelactone B]
carragheenin induced swelling [4]: reduces carragheenin induced swelling

SMILES: CCCCCCC[C@@H](C[C@@H]1OC(=O)[C@H]1CCCCCCCC(C)C)OC(=O)[C@H](C)NC=O [Panclicin A]
mode of inhibition of pancreatic lipase (irreversibility) [5]: irreversibly inhibit pancreatic lipase
potency against plasma lipases compared with THL [6]: same potency as THL

SMILES: CCCCCCCCCCC[C@@H](C[C@@H]1OC(=O)[C@H]1CCCCCC)OC(=O)[C@H](CC(C)C)NC=O [tetrahydrolipstatin, (2S,3S,5S)-5-((S)-2-4-methylvaleryloxy)-2-heyl-3-hydroxy-hexadecanoic acid lactone]
fat excreted, average ([2]; orlistat 120 mg tid): 5.6 (+/−3.8) g/day

Further lines, results first:

mode of inhibition of pancreatic lipase (irreversibility) [5]: irreversibly inhibit pancreatic lipase
SMILES: CCCCCCC[C@@H](C[C@@H]1OC(=O)[C@H]1CCCCCCCC(C)C)OC(=O)CNC=O [Panclicin C]

mode of inhibition of pancreatic lipase (irreversibility) [5]: irreversibly inhibit pancreatic lipase
SMILES: CCCCCCCCCC[C@@H]1C(=O)O[C@H]1C[C@H](CCCCCCC)OC(=O)CNC=O [Panclicin D]

mode of inhibition of pancreatic lipase (irreversibility) [5]: irreversibly inhibit pancreatic lipase
SMILES: CCCCCCCCCCCC[C@@H]1C(=O)O[C@H]1C[C@H](CCCCCCC)OC(=O)CNC=O [Panclicin E]
